One assay has as its system Myzus persicae. Nature of the assay: Aphid settling (choice test) on treated vs control leaves of Brassica rapa subsp. pekinensis. Type of assay: in vivo. Conditions: for Mean number of aphids settled on treated (test) leaf: 0.1% solution in 70% ethanol, mean (± SD), n = 8, 20 aphids/replicate; for Effect on aphid settling behavior (deterrent / attractant): choice test, 0.1% solution, significance p < 0.05 Student t-test. The method, then: The peach potato aphids Myzus persicae (Sulzer) and the Chinese cabbage Brassica rapa subsp. pekinensis (Lour.) Hanelt were reared in laboratory at 20 °C, 65% r.h., and L16:8D photoperiod. One to seven days old apterous females of M. persicae and 3-week old plants with 4–5 fully developed leaves were used for experiments. M. persicae were obtained from the laboratory culture maintained at the Department of Botany and Ecology for many generations since 2000. All experiments were carried out under the same conditions of temperature, relative humidity, and photoperiod. The bioassays were started at 10–11.a.m. Each compound was dissolved in 70% ethanol to obtain the recommended 0.1% solution[40]. All compounds were applied on the adaxial and abaxial leaf surfaces by immersing a leaf in the ethanolic solution of a given compound for 30 s.[20]. Control leaves of similar size were immersed in 70% ethanol that was used as a solvent for the studied compounds. Experiments were performed 1 h after the compounds application to allow the evaporation of the solvent. Every plant and aphid were used only once.
This bioassay allows the study of aphid host preferences under semi-natural conditions. In the present study, aphids were given free choice between control and treated excised leaves that were placed in a Petri dish. Aphids were placed in the dish equidistance from treated and untreated leaves, so that aphids could choose between treated (on one half of a Petri dish) and control leaves (on the other half of the dish). […] Each experiment was replicated 8 times (n = 8 replicates, 20 viviparous apterous females/replicate). Aphids that were moving or not on any of the leaves were not counted.
The data of the choice-test were analyzed using Student’s t-test (STATISTICA 13.1. package). […] If aphids settled mainly on the control leaf (p < 0.05), the compound tested in the respective choice-test was stated a deterrent. From the data thus obtained the relative index of deterrence (DI) was calculated: DI = (C − T/C + T) where C was the number of aphids settled on control leaf, T was the number of aphids settled on the leaf treated with the tested compound. The value of DI ranged between 1 (ideal deterrent) and − 1 (ideal attractant)[41].

Another assay concerns BALB/3T3 cells. The assay can be described thus: Toxicity towards normal fibroblasts, SRB assay. Conditions: 72 h exposure, mean ± SD, n.a = no activity in concentration of 5, 25, 125, 625 μM. It counts as cell-based. As to the method:
(§1) Human biphenotypic B myelomonocytic leukemia MV4-11, human colon cancer LoVo cell line and normal mouse fibroblast BALB/3T3 cells were obtained from American Type Culture Collection (Rockville, Maryland, USA), human lung carcinoma A549 cells were obtained from European Collection of Authenticated Cell Cultures (UK). All the cell lines are being maintained at the Hirszfeld Institute of Immunology and Experimental Therapy, PAS, Wroclaw, Poland and were cultured according the procedure described before.
(§2) Cell lines were cultured according to the protocol described before. MV4-11 cells were cultured in RPMI 1640 medium (Gibco, UK) with 1.0 mM sodium pyruvate, and 10% fetal bovine serum (FBS) (all from Sigma-Aldrich, Germany). A549, LoVo and LoVo/DX cells were cultured in RPMI 1640 + Opti-MEM (1:1) (both from Gibco, UK) supplemented with 5% fetal bovine serum, 1.0 mM sodium pyruvate (LoVo and LoVo/DX cells) (all from Sigma Aldrich Germany) and 0.1 μg/mL doxorubicin chloride (Accord) (only LoVo/DX cells). BALB/3T3 cells in Dulbecco medium (IIET, Poland) supplemented with 10% fetal bovine serum (Sigma-Aldrich, Germany). All culture media were supplemented with 2 mM L-glutamine (Sigma-Aldrich, Germany), 100 units/mL penicillin, and 100 µg/mL streptomycin (both from Polfa Tarchomin S.A., Poland). All cell lines were grown at 37 °C with 5% CO2 humidified atmosphere.
(§3) The solutions of the compounds (50 mM) were prepared by dissolving the substances in DMSO (Sigma Aldrich, Germany). Then the tested compounds were diluted in culture medium to reach the final concentrations of 625, 125, 25 and 5 μM. Before adding of the tested compounds (24 h prior), the cells were plated in 96-well plates (Sarstedt, Germany) at a density of 1 × 10^4 or 0.5 × 10^4 (A549) cells per well. The assay was performed after 72 h of exposure to 625, 125, 25 and 5 μM of the tested agents. The in vitro cytotoxic effect of all agents was examined using the MTT (MV4-11) or SRB assay, described previously. The results were calculated as an IC50 (inhibitory concentration 50%) the concentration of tested agent, which is cytotoxic for 50% of the cancer cells. Each compound in each concentration was tested in triplicate in a single experiment, which was repeated 3–5 times.
(In SRB staining, fixed cells bind dye roughly in proportion to their protein.)

In the next assay the test system is MV4-11 cells. Nature of the assay: Cell cycle analysis by flow cytometry (propidium iodide). Type of assay: cell-based, human. Conditions: MV4-11, 75 µM, 72 h. The method, then:
Cell cycle analysis was carried out according to the procedure previously described. The MV4-11 cells were seeded at the density of 1 × 10^5 cells/well of culture medium on 24-well plates (Sarstedt, Germany) to the final volume of 2 mL and were exposed to the test compounds at concentrations 75 μM for 72 h. After incubation, the cells were collected and 1 × 10^6 of cells were washed twice in cold PBS and fixed for 24 h in 70% ethanol at − 20 °C. Then the cells were washed twice in PBS and incubated with RNAse (8 μg/mL, Fermentas, Germany) at 37 °C for 1 h. The cells were stained for 30 min. with propidium iodide (50 μg/mL, Sigma Aldrich, Germany) at 4 °C and the cellular DNA content was analyzed by flow cytometry using BD LSRFortessa cytometer (BD Bioscience, San Jose, USA). Compounds at each concentration were tested at least three times independently. Obtained results were analyzed using Flowing software 2 (Cell Imaging Core, Turku Centre for Biotechnology, University of Turku Åbo Akademi University).
In general terms: In flow cytometry, cells or beads pass a laser one at a time.

The test system of the next assay is A549 cells. The assay can be described thus: Antiproliferative activity, SRB assay. Conditions: for IC50: 72 h exposure, SRB, mean ± SD, n.a = no activity in concentration of 5, 25, 125, 625 μM; for Selectivity index SI, A549: SI = IC50 BALB/3T3 / IC50 A549. Type of assay: cell-based, human. The method, then:
as §1, §2, §3

For a further assay, the system named is LoVo cells. Nature of the assay: Antiproliferative activity, SRB assay. It counts as cell-based, human. As to conditions: for IC50: 72 h exposure, SRB, mean ± SD, n.a = no activity in concentration of 5, 25, 125, 625 μM; for Selectivity index SI, LoVo: SI = IC50 BALB/3T3 / IC50 LoVo. As to the method:
as §1, §2, §3

Setting [1] is: BALB/3T3, normal mouse fibroblasts.

As usually defined, the IC50 is the concentration that gives 50% inhibition. High values mean weaker potency, low ones greater potency.

As to `CC(C)CCCC(C)CCCC(C)CCC[C@]1(C)CC(=O)O[C@H]1CBr` (stereo in doubt) [compound 5, cis-5-Bromomethyl-4-methyl-4-(4′,8′,12′-trimethyltridecyl)dihydrofuran-2-one], the entries for the “Mean number of aphids settled on treated (test) leaf” value (“Mean number of aphids settled” below) with Myzus persicae (1 h after access), in the assay with Myzus persicae (2 h after access) and in the assay with Myzus persicae (24 h after access) were 3.4 (± 1.0), 3.0 (± 1.1) and 5.6 (± 1.4), respectively. In the assay on BALB/3T3 cells (setting [1]), this molecule came in with an IC50 of 424 ± 140 µM. In addition, in the assay on MV4-11 cells, the “Induced death of cells” value is listed as 20–30%.
Turning to `CC(C)CCCC(C)CCCC(C)CCC[C@]1(C)CC(=O)O[C@@H]1CBr` (stereo in doubt) [compound 4, trans-5-Bromomethyl-4-methyl-4-(4′,8′,12′-trimethyltridecyl)dihydrofuran-2-one], the “Mean number of aphids settled” value is given as 2.9 (± 0.7) with Myzus persicae (1 h after access), 2.4 (± 0.6) in the assay with Myzus persicae (2 h after access) and 4.9 (± 1.7) in the assay with Myzus persicae (24 h after access). Further, the half-inhibitory concentration (IC50) with BALB/3T3 cells (setting [1]) amounted to 348 ± 27.6 µM. Also, the “Induced death of cells” value in the assay with MV4-11 cells was 20–30%.
Take “3,7,11,15-tetramethylhexadec-2-en-1-ol [Phytol (1), reference compound]”: the “Mean number of aphids settled” value with Myzus persicae (1 h after access) is listed as 10.4 (± 1.3); in the assay on Myzus persicae (2 h after access), 7.9 (± 1.0); with Myzus persicae (24 h after access), 6.6 (± 0.9). Moreover, the “Effect on aphid settling behavior (deterrent / attractant)” value with Myzus persicae is on record as “deterrent properties”. In addition, the concentration for half-maximal inhibition (IC50) in the assay with BALB/3T3 cells (normal mouse fibroblasts) was 64.5 ± 12.9 µM; with A549 cells it was 64.1 ± 5.2 µM; in the assay with LoVo cells it was 255 ± 46.5 µM. Moreover, in the assay with A549 cells, the “Selectivity index SI, A549” value is 1.01. Also, the “Selectivity index SI, LoVo” value in the assay with LoVo cells worked out at 0.25.
As to `CC(C)CCCC(C)CCCC(C)CCC[C@]1(C)CC(=O)O[C@H]1CCl` (stereo in doubt) [compound 7, cis-5-chloromethyl-4-methyl-4-(4′,8′,12′-trimethyltridecyl)dihydrofuran-2-one], the figures for the “Mean number of aphids settled” value in the assay on Myzus persicae (1 h after access), with Myzus persicae (2 h after access) and with Myzus persicae (24 h after access) were 4.1 (± 1.0), 3.5 (± 0.7) and 4.8 (± 0.9), respectively. In addition, in the assay on MV4-11 cells, the “Induced death of cells” value was 20–30%.
Regarding `C=CC(C)(CCCC(C)CCCC(C)CCCC(C)C)CC(=O)O` (stereo not drawn) [compound 3, 3,7,11,15-tetramethyl-3-vinylhexadecanoic acid], the “Mean number of aphids settled” value in the assay on Myzus persicae (1 h after access) is 8.5 (± 2.1); with Myzus persicae (2 h after access) it was 8.9 (± 1.0); with Myzus persicae (24 h after access) it was 8.1 (± 1.3). The IC50 was 145 ± 48 µM in the assay on BALB/3T3 cells (setting [1]); 49.5 ± 2.9 µM in the assay on A549 cells (Homo sapiens, A549); 59.5 ± 1.1 µM in the assay on LoVo cells (Homo sapiens, LoVo). Further, the “Induced death of cells” value with MV4-11 cells is recorded as 50%. In the assay with A549 cells, the “Selectivity index SI, A549” value stood at 2.93. The “Selectivity index SI, LoVo” value in the assay on LoVo cells is 2.44.
As for `CC(C)CCCC(C)CCCC(C)CCC[C@]1(C)CC(=O)O[C@@H]1CCl` (stereo in doubt) [compound 6, trans-5-Chloromethyl-4-methyl-4-(4′,8′,12′-trimethyltridecyl)dihydrofuran-2-one], the “Mean number of aphids settled” value in the assay on Myzus persicae (1 h after access) is on record as 5.8 (± 1.3); in the assay on Myzus persicae (2 h after access) it was 4.5 (± 1.1); in the assay with Myzus persicae (24 h after access), 10.0 (± 1.7). Moreover, in the assay with Myzus persicae, the “Effect on aphid settling behavior (deterrent / attractant)” value is reported as “attractant properties”. Moreover, the 50% inhibitory concentration (IC50) with BALB/3T3 cells (setting [1]) worked out at 273 ± 16.4 µM; in the assay on A549 cells (Homo sapiens, A549), 378 ± 32.8 µM; in the assay with LoVo cells (Homo sapiens, LoVo) it was 293 ± 33.1 µM. Besides, the “Induced death of cells” value in the assay with MV4-11 cells was 50%. Besides, in the assay on A549 cells, the “Selectivity index SI, A549” value is 0.72. Besides, the “Selectivity index SI, LoVo” value in the assay with LoVo cells turned out to be 0.93.
